From patent publication US10196404B2, “MCL-1 inhibitors and methods of use thereof” (AstraZeneca AB, priority 2016, dated 2019)
Values belong to the compound of their own block, whether it stands above or below them.

Columns and labels:
NCl-H929 tumor = test: In vivo combination efficacy in NCI-H929 human multiple myeloma tumor model; parameters: species or system C.B-17 SCID female mice; conditions: NCl-H929 tumor bearing mice; for anti-tumor activity, agent alone: Example 2 30 mg/kg every other week or bortezomib 1 mg/kg weekly
Experimental: (§1) Example 2 was formulated in 30% 2-Hydroxypropyl-beta-cyclodextrin (HPBCD), pH 9 and dosed as intravenously (iv) in a volume of 5 ml/kg. 5×10^6 MOLP-8 tumor cells or 10^7 NCl-H929 tumor cells were injected subcutaneously in the right flank of C.B-17 SCID female mice in a volume of 0.1 mL. Tumor volumes (measured by caliper) were calculated using the formula: length (mm)×width (mm)^2[…]. For efficacy studies, mice were randomized based on tumor volumes and growth inhibition was assessed by comparison of the differences in tumor volume between control and treated groups. Dosing began when mean tumor size reached approximately 160 mm^3 for MOLP-8 and approximately 230 mm^3 for NCl-H929.

[1] = system: NCl-H23 (non-small cell lung cancer) cells; test: Caspase Activity Assay (Caspase-Glo 3/7, 6 h treatment), NCI-H23; type: cell-based; conditions: geometric mean of multiple measurements
Experimental: (§2) This is a cell assay to measure the induction of apoptosis in MOLP-8 (multiple myeloma), KMS-12-BM (multiple myeloma), MV-4-11 (acute myeloid leukemia), and NCl-H23 (non-small cell lung cancer) cells after 6 h treatment. On the first day, 3000 (MOLP-8, KMS-12-BM, MV-4-11) or 1250 (NCl-H23) cells/well were seeded in 50 μL of growth media (IMDM+10% FBS+2 mM L-Glu for MV-4-11 and RPM1-1640+10% FBS+2 mM L-Glu for all other cell lines) in 384-well white microplates, and incubated overnight (37° C., 5% CO2, 80% RH). On the second day, the cells were treated with Mcl-1 inhibitors using an ECHO acoustic liquid handler (10 point half-log serial dilution, 31.5 μM top concentration, 0.3% final DMSO concentration). After 6 h incubation (37° C., 5% CO2, 80% RH), 25 μL of Caspase-Glo 3/7 reagent (Promega) was added into each well, and plates were incubated at room temperature for 30 min protected from light. Luminescence was recorded using an Infinite M200 microplate reader (Tecan) with a 100 ms integration time. EC50 values were calculated using GeneData analysis software.

[2] = system: KMS-12-BM (multiple myeloma) cells; test: Caspase Activity Assay (Caspase-Glo 3/7, 6 h treatment), KMS-12-BM; type: cell-based; conditions: KMS-12-BM cells, geometric mean of multiple measurements
Experimental: as §2

[3] = system: MOLP-8 (multiple myeloma) cells; test: Caspase Activity Assay (Caspase-Glo 3/7, 6 h treatment), MOLP-8; type: cell-based, human; conditions: MOLP-8 cells, geometric mean of multiple measurements
Experimental: as §2

[4] = system: MV-4-11 (acute myeloid leukemia) cells; test: Caspase Activity Assay (Caspase-Glo 3/7, 6 h treatment), MV-4-11; type: cell-based, human; conditions: MV-4-11 cells, geometric mean of multiple measurements
Experimental: as §2

MOLP-8 tumor = test: In vivo efficacy in MOLP-8 human multiple myeloma tumor model; parameters: species or system C.B-17 SCID female mice; conditions: MOLP-8 tumor bearing mice
Experimental: as §1

MV-4-11 tumor = test: In vivo efficacy in MV-4-11 human acute myeloid leukemia tumor model; parameters: species or system C.B-17 SCID female mice; conditions: for mice remaining tumor free / tumor regression: MV-4-11 tumors
Experimental: as §1, with “a single intravenous” for “intravenously”, “(iv) administration” for “(iv)”, “10^6 MV-4-11” for “5×10^6 MOLP-8 tumor cells or 10^7 NCl-H929”, “mL. Tumor volumes (measured by caliper), animal body weight, and tumor conditions were recorded twice weekly for the duration of the study.” for “mL.”, “approximately” for “approximately 160 mm^3 for MOLP-8 and approximately”, “mm^3.” for “mm^3 for NCl-H929.”

SMILES: CC(C)C[C@H](NC(=O)[C@H](Cc1ccccc1)NC(=O)c1cnccn1)B(O)O [bortezomib, reference compound]
- anti-tumor activity, agent alone (NCl-H929 tumor): no significant anti-tumor activity

- EC50 [1]: 531 nM
- EC50 ([2]; Homo sapiens, KMS-12-BM, 6 h): 48 nM
- EC50 ([3]; Homo sapiens, MOLP-8, 6 h): 44 nM
- EC50 ([4]; Homo sapiens, MV4-11, 6 h): 24 nM
SMILES: Cc1c2c(nn1C)CSCc1cc(n(C)n1)CSc1cc(c3ccccc3c1)OCCCc1c(C(=O)O)n(C)c3c-2c(Cl)ccc13 [Example 1, 17-chloro-5,13,14,22-tetramethyl-28-oxa-2,9-dithia-5,6,12,13,22-pentaazaheptacyclo[27.7.1.1^4,7.0^11,15.0^16,21.0^20,24.0^30,35]octatriaconta-1(37),4(38),6,11,14,16,18,20,23,29,31,33,35-tridecaene-23-carboxylic Acid]

- EC50 ([1]; Homo sapiens, NCI-H23, 6 h): > 10000 nM
- EC50 ([2]; Homo sapiens, KMS-12-BM, 6 h): > 1030 nM
- EC50 ([3]; Homo sapiens, MOLP-8, 6 h): > 2300 nM
- EC50 ([4]; Homo sapiens, MV4-11, 6 h): > 1580 nM
SMILES: Cc1c2c(nn1C)CSCc1cc(n(C)n1)CSc1cc(c3ccccc3c1)OCCCc1c(C(=O)O)n(C)c3c-2c(Cl)ccc13 (single isomer, unassigned) [Example 3, (Sa)-(−)-17-chloro-5,13,14,22-tetramethyl-28-oxa-2,9-dithia-5,6,12,13,22-pentaazaheptacyclo[27.7.1.1^4,7.0^11,15.0^16,21.0^20,24.0^30,35]octatriaconta-1(37),4(38),6,11,14,16,18,20,23,29,31,33,35-tridecaene-23-carboxylic Acid]

- EC50 [2]: 43 nM
- EC50 [3]: 30 nM
- EC50 [4]: 20 nM
SMILES: Cc1c2c(nn1C)CSCc1cc(n(C)n1)CSc1cc(c3ccccc3c1)OCCCc1c(C(=O)O)n(C)c3c-2c(Cl)ccc13 (atropisomer, axis not shown; (Ra)) [Example 2, (Ra)-(+)-17-chloro-5,13,14,22-tetramethyl-28-oxa-2,9-dithia-5,6,12,13,22-pentaazaheptacyclo[27.7.1.1^4,7.0^11,15.0^16,21.0^20,24.0^30,35]octatriaconta-1(37),4(38),6,11,14,16,18,20,23,29,31,33,35-tridecaene-23-carboxylic Acid]
- anti-tumor activity (qualitative) (MOLP-8 tumor; iv): dose dependent anti-tumor activity
- tumor growth inhibition (TGI) (MOLP-8 tumor; single iv administration at 10 mg/kg): 52%
- tumor growth inhibition (TGI) (MOLP-8 tumor; single iv administration at 30 mg/kg): 92%
- mice with complete tumor regression (MOLP-8 tumor; single iv administration at 60 or 100 mg/kg, measured 10 days after dosing): 13 out of 14
- mice remaining tumor free (MV-4-11 tumor; once weekly iv 30 mg/kg, 16 days after initiation of therapy): 1 of 6
- tumor regression (MV-4-11 tumor; once weekly iv 30 mg/kg, at Day 6): ~73%
- tumor regression (MV-4-11 tumor; single iv dose of 100 mg/kg): 100%
- mice remaining tumor free (MV-4-11 tumor; single iv dose of 100 mg/kg, 16 days after therapy): 4 of the 6
- anti-tumor activity (qualitative) (MV-4-11 tumor; mice bearing subcutaneous MV-4-11 tumors, iv): significant anti-tumor activity
- anti-tumor activity, agent alone (NCl-H929 tumor): no significant anti-tumor activity
- anti-tumor effect of combination (NCl-H929 tumor; Example 2 every other week at 30 mg/kg in combination with weekly bortezomib at 1 mg/kg): tumor regression
